The results in this text go back to patent publication US11103603B2, “18F-labeled compounds for PET imaging and uses thereof” (The University of North Carolina at Chapel Hill, priority 2016, dated 2021).

One assay concerns the target IDO1 enzyme (Homo sapiens, UniProt P14902). The assay can be described thus: IDO1 enzyme assay (substrate test, absorbance at 490 nm). The format is biochemical. The conditions noted are these: for substrate to IDO1 enzyme: FIG. 7A; for absorbance at 490 nm: reaction containing the compound, results from 3 independent assays, control reaction had no absorbance. On the procedure: (§1) (D) Decay-corrected whole-body small PET images of B16F10 melanoma after 30 min injection of 5-[^18]F-AMT.
(§2) Among the agents synthesized, 5-[^18F]F-AMT was first evaluated in vitro. In order to ensure that 5-[^18F]F-AMT could be used for IDO imaging, cell- and enzyme-based assays were performed. It was first tested whether 5-[^18F]F-AMT is a substrate for the IDO enzyme, and the result compared with that of the natural substrate Trp and a known IDO agent, α-methyl-L-tryptophan (AMT). […] Therefore, a cell-based assay was performed to further evaluate the agents. The uptake of 5-[^18F]F-AMT in IFNγ-treated cells was 3.474±0.6451% compared with 0.50±0.28% in control cells after 1 h incubation (p<0.001) (FIG. 7C). […] The serotonin pathway is a competitive metabolic route for Trp and its derivatives. In the first step Tph adds a hydroxyl group to position 5 of the indole ring. It was evaluated whether the introduction of fluorine at the 5-position would affect metabolism by Tph. As shown in) (FIG. 7B), immediately after adding L-Trp to the reaction system containing the tryptophan hydroxylase enzyme, the fluorescence signal increased from a baseline value of −0.266 to 40.885 and reached a peak value 58.350 at 26 min. Immediately after adding AMT to the reaction system, the fluorescence signal increased from a baseline value of −0.312 to 21.145 and reached a peak value of 36.607 at 34 min.

The test system of assay [1] is tryptophan hydroxylase enzyme. The assay can be described thus: Protein based tryptophan hydroxylase (Tph) assay, fluorescence signal. The note with it: for fluorescence signal immediately after adding compound: immediately after adding to reaction system containing tryptophan hydroxylase; for fluorescence signal peak value: peak of time course; for substrate quality for Tph: compared with Trp and AMT. The format is biochemical. The protocol:
as §2

Another assay has as its system HeLa cells. Kind of assay: Cell uptake of tracer in HeLa cells with or without IFNγ treatment and NLG919. The class given is cell-based. The protocol: as §1, §2
A further assay has as its system B16F10 melanoma. Kind of assay: Small animal PET imaging of B16F10 melanoma tumor xenograft mouse model. The format is in vivo. The conditions noted are these: 200 μCi injected, image at 30 min. The protocol: as §1
FIGS. 8A-8B show (A) decay-corrected whole-body small PET images of B16F10 melanoma 0.5 h, 1.4 h, and 20 h after injection of ^124I-AMT; (B) decay-corrected whole-body small PET images of B16F10 melanoma 50 min after injection of ^18F—N-Me-Trp.
A tumor xenograft mouse model was produced with a B16F10 melanoma. 200 μCi of 5-^18F-AMT was injected and a PET image was obtained at 30 min. (FIG. 7D).
To test the effectiveness of therapeutic compounds of the invention, a tumor […] xenograft mouse model was produced with a B16F10 melanoma. 1 (FIG. 8A) or ^18F—N-Me-Trp (FIG. 8B) were injected in the tail vein and PET images obtained.

Sequence of IDO1 enzyme (P14902 whole entry, species assumed): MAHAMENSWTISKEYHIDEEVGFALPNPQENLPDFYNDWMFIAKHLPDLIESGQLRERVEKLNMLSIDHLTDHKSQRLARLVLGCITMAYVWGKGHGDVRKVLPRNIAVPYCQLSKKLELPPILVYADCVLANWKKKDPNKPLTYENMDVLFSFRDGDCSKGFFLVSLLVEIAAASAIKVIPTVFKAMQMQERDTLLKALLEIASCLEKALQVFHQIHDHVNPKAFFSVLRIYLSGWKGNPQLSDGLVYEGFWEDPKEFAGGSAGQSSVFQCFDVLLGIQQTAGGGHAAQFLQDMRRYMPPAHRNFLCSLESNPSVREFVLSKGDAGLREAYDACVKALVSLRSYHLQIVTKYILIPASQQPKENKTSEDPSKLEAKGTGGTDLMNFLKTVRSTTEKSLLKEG

`N[C@@H](Cc1c[nH]c2ccccc12)C(=O)O` [L-Trp, L-tryptophan]: on IDO1 enzyme, the “substrate to IDO1 enzyme” value is reported as “substrates” and the “absorbance at 490 nm” value came out at 0.21±0.01. Besides, in assay [1], the “time at which peak fluorescence was reached” value (“time” below) worked out at 26 min, the “fluorescence signal immediately after adding compound” value (from here on “fluorescence signal immediately”) came out at 40.885 and the “fluorescence signal peak value” is 58.350.
With `CC(N)(Cc1c[nH]c2ccc(F)cc12)C(=O)O` (stereo not shown) [5-F-AMT], at IDO1 enzyme, the “substrate to IDO1 enzyme” value was “substrates” and the “absorbance at 490 nm” value amounted to 0.16±0.03. In addition, in assay [1], the “time” value is recorded as 25 min, the “substrate quality for Tph” value is “not a good substrate”, the “fluorescence signal immediately” value came out at 5.635 and the “fluorescence signal peak value” is given as 8.176.
Regarding `C[C@](N)(Cc1c[nH]c2ccccc12)C(=O)O` [AMT, α-methyl-L-tryptophan], on IDO1 enzyme, the “substrate to IDO1 enzyme” value is “substrates” and the “absorbance at 490 nm” value is reported as 0.19±0.02. Also, in assay [1], the “time” value came out at 34 min, the “fluorescence signal immediately” value was 21.145 and the “fluorescence signal peak value” is given as 36.607.
As for `CC(N)(Cc1c[nH]c2ccc([18F])cc12)C(=O)O` (stereo not shown) [5-[^18F]F-AMT], the “increase of HeLa cells uptake after IFN-γ treatment” value in the assay on HeLa cells (HeLa cells, IFN-γ treated vs untreated) is listed as 7 times. Besides, the “uptake in IFNγ-treated cells incubated with NLG919” value in the assay on HeLa cells (IFNγ-treated cells + IDO1 inhibitor NLG919) worked out at 0.88±0.12%. In the assay on HeLa cells (IFNγ-treated cells, 1 h incubation), the “uptake in IFNγ-treated cells” value is listed as 3.474±0.6451%. For the same compound, the “uptake in control cells” value with HeLa cells (control cells (no IFNγ), 1 h incubation) is reported as 0.50±0.28%. In assay [1], the “substrate quality for Tph” value is recorded as “worse substrate”. Also, the “PET image of tumor” value in the assay on B16F10 melanoma is “clearly shows the tumor”.
